Assay results reported in paper PMC6006479, “Minimization of dynamic effects in the evolution of dihydrofolate reductase” (Chemical Science, 2016).

Target: T1, MpDHFR (Moritella profunda, UniProt Q70YQ6)
T1 construct: gene dyrA; purified recombinant enzyme made in minimal medium; 'light' form with natural abundance isotopes; construct details only in supplement; monomeric
Assay: steady-state kinetics
Format: biochemical
Conditions: light (natural abundance) enzyme, pH 7.0

T1 sequence (Q70YQ6 entry or part of it): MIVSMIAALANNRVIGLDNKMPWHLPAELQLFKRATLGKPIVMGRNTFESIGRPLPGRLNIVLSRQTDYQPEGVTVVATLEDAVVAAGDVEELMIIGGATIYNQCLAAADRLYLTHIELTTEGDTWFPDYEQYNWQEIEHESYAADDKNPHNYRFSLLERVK

| SMILES | Michaelis constant (co-substrate NADPH) | Michaelis constant (co-substrate dihydrofolate) |
| --- | --- | --- |
| Nc1nc2c(c(=O)[nH]1)N=C(CNc1ccc(C(=O)N[C@@H](CCC(=O)O)C(=O)O)cc1)CN2 [DHF] | The Michaelis constants for NADPH and DHF are essentially the same for all these enzymes | – |
| NC(=O)C1=CN([C@@H]2O[C@H](COP(=O)(O)OP(=O)(O)OC[C@H]3O[C@@H](n4cnc5c(N)ncnc54)[C@H](OP(=O)(O)O)[C@@H]3O)[C@@H](O)[C@H]2O)C=CC1 [NADPH] | – | The Michaelis constants for NADPH and DHF are essentially the same for all these enzymes |
